Values quoted from earlier work in patent US20220241230A1, “DICLOFENAC SACHET COMPOSITION” (Patrin Pharma, Inc., priority 2021, published 2022).

Legend:
[1] = commercially available sugar coated tablets
[2] = 100 mg and 50 mg tablets, versus placebo
[3] = 50 mg and 100 mg sugar coated tablets

For `O=C(O)Cc1ccccc1Nc1c(Cl)cccc1Cl` [diclofenac potassium, Diclofenac potassium], the terminal half-life [1] is given as “about 1.9 hours”, the “incidence of headache recurrence within 48 hours of treatment” value (50 mg and 100 mg immediate release tablets, versus placebo, statistical significance not reported) is given as “higher incidence of headache recurrence than patients treated with placebo” and the “effectiveness against phonophobia two hours after treatment” value [3] is given as “only the 100 mg dose was effective”. For the same molecule, the “effectiveness against photophobia eight hours after treatment” value [3] was “both doses were effective”, the “effectiveness against photophobia two hours after treatment” value [3] was “neither dose was effective” and the “relief of migraine pain within two hours of treatment” value [3] was “ability of both doses to relieve migraine pain”. For the same molecule, the “effectiveness against photophobia eight hours after treatment, 50 mg dose” value (50 mg sugar coated tablets) was “effective”.

For `O=C(O)Cc1ccccc1Nc1c(Cl)cccc1Cl` [diclofenac, [(2,6-dichloro-anilino)-2-phenyl]-2-acetic acid], the “effectiveness against migraine pain within two hours of treatment” value [2] is given as “both strengths were effective” and the “effectiveness against phonophobia and photophobia within two hours” value [2] is given as “only the 100 mg strength was effective”.
